Consider 2 molecules from patent US20200206212A1 (Celgene Corporation, priority 2018, published 2020).

Data set [1] deals with acute myeloid leukemia (AML) at relapse. The following applies: administered alone; cited from earlier work.
Data set [2] is classed as physicochemical. From the text:
“Compound 1” or “API” in the Examples herein refers to polymorph Form C of 2-(4-chlorophenyl)-N-((2-(2,6-dioxopiperidin-3-yl)-1-oxoisoindolin-5-yl)methyl)-2,2-difluoroacetamide. […] Other forms of Compound 1, including Form A, Form B, Form D, Form F and amorphous form can be used in the formulations provided herein.

The nature of another data set: physchem. Type of data set: physicochemical. As to conditions: for solubility: organic solvent or mixture, thermodynamic from solid. How it is done: FA/AcOH mixtures ranging from 100% FA to 70%/30% FA/AcOH in decrements of 10% were used.
Solutions of FA/AcOH at ratios described in Table 39 were used. […] Samples were taken at each time point (4, 24, and 48 h) and assayed (36 total). Samples were spun down briefly (500 g, 4 min) to precipitate all solids and 25 μL of solution were taken for assay.

Turning to “CT-011: anti-PD-1 antibody, a humanized antibody”, the “response in treating acute myeloid leukemia (AML) at relapse” value in data set [1] was “failed to show response”.

One may read the solubility as how much of the substance goes into solution per volume. For `O=C1CCC(N2Cc3cc(CNC(=O)C(F)(F)c4ccc(Cl)cc4)ccc3C2=O)C(=O)N1` (centres unmarked) [Compound 1, 2-(4-chlorophenyl)-N-((2-(2,6-dioxopiperidin-3-yl)-1-oxoisoindolin-5-yl)methyl)-2,2-difluoroacetamide], in data set [2], the Hygroscopicity result is given as “Not hygroscopic”, the “Solid State Stability” value was “DS is physically stable under all storage conditions” and the major degradation pathway entry was “Hydrolysis”. Moreover, the “Solution Stability” value in data set [2] (pH 5) was “not stable in solution at pH of 5.0 or above”. Also, the “solubility across FA/AcOH mixtures” value in the data set “physchem” is recorded as “maximized in 100% FA”. In addition, the solubility in “physchem” (40 °C) was greater than 250 mg/mL. Besides, the solubility in “physchem” (60 °C) is greater than 250 mg/mL.
